# Measured values reported in patent US20150210977A1, “BACTERIUM WITH INCREASED TOLERANCE TO BUTYRIC ACIDS” (LanzaTech New Zealand Limited, priority 2014, published 2015).
# Experiments:
# Format in all cases: cell-based, Clostridium autoethanogenum
# [1] = tested on: C. autoethanogenum LZ1561; experiment: Growth of C. autoethanogenum LZ1561 challenged with 2-HIBA in serum bottles; design: growth rate μ, Set 1 / growth rate μ, Set 2: unit not given here
# Method: Clostridium strains were grown at 37° C. in PETC media at pH 5.6 using standard anaerobic techniques (Hungate, Meth Microbiol, 3B: 117-132, 1969; Wolfe, Adv Microb Physiol, 6: 107-146, 1971). Fructose (heterotrophic growth) or 30 psi CO-containing steel mill gas (collected from New Zealand Steel site in Glenbrook, NZ; composition: 44% CO, 32% N2, 22% CO2, 2% H2) in the headspace (autotrophic growth) was used as substrate. For solid media, 1.2% bacto agar (BD, Frankton Lakes, N.J. 07417, USA) was added.
# Two sets of serum bottle experiments were performed with media containing 0, 0.5, 1, 1.5, 2, 3, or 4 g/L of 2-HIBA. An average of optical density (OD) data from both sets of growth experiments was plotted. Data points outside the visually observed exponential growth phase were removed and the growth rate (g) for each concentration of 2-HIBA was calculated by fitting an exponential trend line (FIG. 1).
# FIGS. 1A-1D show the growth rates of C. autoethanogenum challenged with different concentrations of 2-HIBA. FIG. 1A and FIG. 1B show the respective difference in growth curves for the two sets of growth experiments (n=3). FIG. 1C and FIG. 1D show exponentially fitted lines corresponding to FIG. 1A and FIG. 1B, respectively. […] To extract the growth rate from the trend line equations, the following equation was used OD=OD0Xe^μt, where OD=y, t=x in the trend line equations, providing the calculated growth rates listed below.
# The growth rates (μ) were plotted in Prism6 (GraphPad, USA) as μ vs log10 [2-HIBA] to determine the concentration of 2-HIBA at which the growth rate of C. autoethanogenum is 50% (FIG. 2).
# [2] = tested on: C. autoethanogenum LZ1561; experiment: Selection of a 2-HIBA tolerant strain in continuous fermentation
# Method: Microorganisms unable to cope with the increasing 2-HIBA concentration were diluted out from the fermentation system, while microorganisms with improved tolerance were retained. Glycerol stocks were collected as the culture resistance improved. CSTRs were inoculated with C. autoethanogenum LZ1561. The reactors were started in batch mode and turned to continuous mode at a dilution rate of 1.5 after approximately 40 hours. Once operationally stable, 2-HIBA (1.1 g/L) was added to the feeding media which was run into the reactor at a dilution rate of 1.5. […] During selection in continuous fermentation, the 2-HIBA concentration tolerated by the C. autoethanogenum LZ1561 culture was reproducibly raised from 1.1 g/L to 6.7 g/L ([…]) by slowly increasing the 2-HIBA concentration over a period of 85 days.
# C. autoethanogenum = experiment: Toxicity of 2-HIBA under continuous fermentation (CSTR), gas uptake and metabolite monitoring; conditions: early effect on gas uptake and metabolite production
# Source text: CSTRs were inoculated with C. autoethanogenum and brought to a stable optical density (OD600 nm) and dilution rate (D˜1.5). For all fermentations in CSTRs, chemically defined media was used containing no yeast extract. Parameters were monitored on an hourly basis, including metabolites (measured by HPLC) and gas composition in/out (measured by GC). Early effects of 2-HIBA on culture metabolism included a measurable reduction in CO and/or H2 utilization rates, followed by a decline in metabolite production rate. Two CSTRs were run in parallel and received the same inoculum and media in flow rate and composition. The reactors were turned continuous at day 0.9 with media containing 1.5 g/L 2-HIBA at a dilution rate of 1.5. […] The process was then repeated on the same culture in one reactor while the other served as a control. Following introduction of 2-HIBA, the metabolic profile of C. autoethanogenum shifted to favor 2,3-butanediol production, capping ethanol production. Biomass production was reduced under increasing inflow from 2-HIBA and overall metabolic levels drop caused by reduced CO and H2 uptake. By removing 2-HIBA from the inflow media, gas uptake and metabolic production is stabilized. This indicates a reversible reaction to 2-HIBA. The average effect level of 2-HIBA in a continuous CSTR system was calculated as 1.15 g/L.
compound,measurement,setting,value
"CC(C)(O)C(=O)O [2-HIBA, 2-hydroxyisobutyric acid]",IC50,"[1]; Clostridium autoethanogenum, LZ1561, μ vs log10 [2-HIBA], read-out: IC50 (concentration of 2-HIBA at which the growth rate is 50%)",2200 µg/mL
same,"growth rate μ, Set 1",[1]; [2-HIBA] 0.5 g/L,0.096
same,"growth rate μ, Set 2",[1]; [2-HIBA] 0.5 g/L,0.104
same,"growth rate μ, Set 1",[1]; [2-HIBA] 1 g/L,0.092
same,"growth rate μ, Set 2",[1]; [2-HIBA] 1 g/L,0.105
same,"growth rate μ, Set 1",[1]; [2-HIBA] 1.5 g/L,0.078
same,"growth rate μ, Set 2",[1]; [2-HIBA] 1.5 g/L,0.089
same,"growth rate μ, Set 1",[1]; [2-HIBA] 2 g/L,0.082
same,"growth rate μ, Set 2",[1]; [2-HIBA] 2 g/L,0.090
same,"growth rate μ, Set 1",[1]; [2-HIBA] 3 g/L,0.001
same,"growth rate μ, Set 2",[1]; [2-HIBA] 3 g/L,0.004
same,"growth rate μ, Set 1",[1]; [2-HIBA] 4 g/L,0.004
same,"growth rate μ, Set 2",[1]; [2-HIBA] 4 g/L,−0.005
same,effect on growth,[1]; concentration up to 1 g/L of 2-HIBA,little or no effect
same,effect on growth,[1]; over 2 g/L of 2-HIBA,acute
same,effect on growth,[1]; up to a concentration of 2 g/L of 2-HIBA,relatively small effect
same,increase in tolerance,[2]; 1.1 g/L to 6.7 g/L during selection in continuous fermentation,600%
same,2-HIBA concentration tolerated by the culture,[2]; C. autoethanogenum LZ1561 culture at start of selection,1.1 g/L
same,2-HIBA concentration tolerated by the culture,[2]; after slowly increasing the 2-HIBA concentration over a period of 85 days,6.7 g/L
same,average effect level of 2-HIBA in a continuous CSTR system,C. autoethanogenum,1.15 g/L
